Where a name gives a salt, the structure may show the parent alone. Numbered stars: 1 amine (or outer) side, 2 acyl side, 3 side chain; on linkers, the order of the positions; unused ones are H or OH. Bridge positions count the residues as written; N and C are the ends. Square brackets hold non-standard residues; d marks the D form. Peptide text beside a SMILES is read from it. * marks the point of attachment. hTyr(3S-OH,4S-OH,3'-OSO3H) = N[C@H](C(=O)O)[C@H](O)[C@@H](O)c1ccc(O)c(OS(=O)(=O)O)c1; Orn(4R-OH,5R-OH) = O=C([C@H](C[C@@H](O)[C@@H](O)N[*:3])N[*:1])[*:2]; Pro(3S-OH,4S-Me) = C[C@H]1CN[C@H](C(=O)O)[C@H]1O; X1 = CCCCCOc1ccc(-c2cc(-c3ccc(C(=O)*)cc3)no2)cc1; Gln(3R-OH) = NC(=O)C[C@@H](O)[C@H](N)C(=O)O; Hyp = O=C(O)[C@@H]1C[C@@H](O)CN1
Biological target: SARS-CoV-2 Mac1 (Severe acute respiratory syndrome coronavirus 2, UniProt P0DTD1)
Experiment: biochemical
Conditions: for inhibition at 100 µM: read-out: %inhibition; for %inhibition: 100 µM, inhibitor

Structure (SMILES)	inhibition at 100 µM	%inhibition
Cc1cccc(C(C)c2c[nH]cn2)c1C (stereo not drawn) [Medetomidine HCl]	21.9%	–
CC(=O)O[C@]1(C(C)=O)CC[C@H]2[C@@H]3C[C@H](C)C4=CC(=O)CC[C@]4(C)[C@H]3CC[C@@]21C [Medroxyprogesterone acetate]	26.1%	–
Cc1cccc(Nc2ccccc2C(=O)O)c1C [Mefenamic Acid]	21%	–
O[C@@H](c1cc(C(F)(F)F)nc2c(C(F)(F)F)cccc12)[C@H]1CCCCN1 [Mefloquine HCl]	0%	–
CC(=O)O[C@]1(C(C)=O)CC[C@H]2[C@@H]3C=C(C)C4=CC(=O)CC[C@]4(C)[C@H]3CC[C@@]21C [Megestrol Acetate]	23.5%	–
CNC[C@H](O)[C@@H](O)[C@H](O)[C@H](O)CO [Meglumine]	15.6%	–
COc1ccc2[nH]cc(CCNC(C)=O)c2c1 [Melatonin]	9.33%	–
Cc1cnc(NC(=O)C2=C(O)c3ccccc3S(=O)(=O)N2C)s1 [Meloxicam]	41.6%	–
N[C@@H](Cc1ccc(N(CCCl)CCCl)cc1)C(=O)O [Melphalan]	3.44%	–
CC12CC3CC(C)(C1)CC(N)(C3)C2 [Memantine HCl]	0%	–
CC1=CC(=O)c2ccccc2C1=O [Menadione]	1.18%	–
C[N+]1(C)CCCC(OC(=O)C(O)(c2ccccc2)c2ccccc2)C1 (stereo not drawn) [Mepenzolate Bromide]	0%	–
Cc1ccccc1OCC(O)CO (stereo not drawn) [Mephenesin]	7.81%	–
[O-][n+]1cccc(CO)c1 [Mepiroxol]	12.3%	–
Cc1cccc(C)c1NC(=O)C1CCCCN1C (stereo not drawn) [Mepivacaine HCl]	–	2.617%
Cc1cccc(C)c1NC(=O)C1CCCCN1C (stereo not drawn) [Mepivacaine]	–	0%
C[C@H]1C[C@H]2[C@@H]3CCC4=CC(=O)C=C[C@]4(C)[C@H]3C(=O)C[C@]2(C)[C@@]1(O)C(=O)CO [Meprednisone]	8.14%	–
CCC1(c2cccc(O)c2)CCCCN(C)C1 (stereo not drawn) [Meptazinol HCl]	0%	–
COc1ccc(O)cc1 [Mequinol]	0%	–
S=c1[nH]cnc2nc[nH]c12 [Mercaptopurine (6-MP)]	19.8%	–
C[C@@H](O)[C@H]1C(=O)N2C(C(=O)O)=C(S[C@@H]3CN[C@H](C(=O)N(C)C)C3)[C@H](C)[C@H]12 [Meropenem Trihydrate]	–	21.42%

Structure (SMILES)	inhibition at 100 µM	%inhibition
C[C@@H](O)[C@H]1C(=O)N2C(C(=O)O)=C(S[C@@H]3CN[C@H](C(=O)N(C)C)C3)[C@H](C)[C@H]12 [Meropenem]	–	0%
Nc1ccc(O)c(C(=O)O)c1 [Mesalamine]	0%	–
O=S(=O)(O)CCS [Mesna]	24.6%	–
CN1CCCCC1CCN1c2ccccc2Sc2ccc([S+](C)[O-])cc21 (stereo not drawn) [Mesoridazine Besylate]	6.43%	–
C#C[C@]1(O)CC[C@H]2[C@@H]3CCc4cc(OC)ccc4[C@H]3CC[C@@]21C [Mestranol]	0%	–
CC(C)NCC(O)c1cc(O)cc(O)c1 (stereo not drawn) [Metaproterenol Sulfate]	2.56%	–
C[C@H](N)[C@H](O)c1cccc(O)c1 [Metaraminol Bitartrate]	8.05%	–
Cc1cc(C)cc(OCC2CNC(=O)O2)c1 (stereo not drawn) [Metaxalone]	0%	–
CN(C)C(=N)NC(=N)N [Metformin HCl]	32.6%	–
CC(=O)OC(C)C[N+](C)(C)C (stereo not drawn) [Methacholine chloride]	8.52%	–
C=C1c2cccc(O)c2C(=O)C2=C(O)[C@]3(O)C(=O)C(C(N)=O)=C(O)[C@@H](N(C)C)[C@@H]3[C@@H](O)[C@H]12 [Methacycline HCl]	0%	–
CC(=O)/N=c1/sc(S(N)(=O)=O)nn1C [Methazolamide]	0%	–
C1N2CN3CN1CN(C2)C3 [Methenamine]	1.76%	–
Cn1ccnc1S [Methimazole]	0%	–
COc1ccccc1OCC(O)COC(N)=O (stereo not drawn) [Methocarbamol]	36.3%	–
CN(Cc1cnc2nc(N)nc(N)c2n1)c1ccc(C(=O)N[C@@H](CCC(=O)O)C(=O)O)cc1 [Methotrexate disodium]	–	0%
CN(Cc1cnc2nc(N)nc(N)c2n1)c1ccc(C(=O)N[C@@H](CCC(=O)O)C(=O)O)cc1 [Methotrexate]	–	59.68%
COc1c2occc2cc2ccc(=O)oc12 [Methoxsalen]	14.7%	–
CNC(C)Cc1ccccc1OC (stereo not drawn) [Methoxyphenamine Hydrochloride]	0%	–
C[N+]1(C)[C@@H]2C[C@@H](OC(=O)[C@H](CO)c3ccccc3)C[C@H]1[C@@H]1O[C@@H]12 [Methscopolamine]	0%	–
CN1C(CCl)Nc2cc(Cl)c(S(N)(=O)=O)cc2S1(=O)=O (stereo not drawn) [Methyclothiazide]	0%	–

Structure (SMILES)	inhibition at 100 µM	%inhibition
COC(=O)CCC(=O)CN [Methyl Aminolevulinate Hydrochloride]	3.98%	–
COC(=O)c1ccccc1O [Methyl salicylate]	7.14%	–
CC[N+](C)(CC)CCOC(=O)C(O)(c1ccccc1)c1ccccc1 [Methylbenactyzine Bromide]	9.38%	–
C[C@](N)(Cc1ccc(O)c(O)c1)C(=O)O [Methyldopa]	8.62%	–
CN(C)c1ccc2nc3ccc(=[N+](C)C)cc-3sc2c1 [Methylene Blue]	43.3%	–
C[C@H]1C[C@@H]2[C@H]([C@@H](O)C[C@@]3(C)[C@H]2CC[C@]3(O)C(=O)CO)[C@@]2(C)C=CC(=O)C=C12 [Methylprednisolone]	39.6%	–
Cc1cc(=O)[nH]c(=S)[nH]1 [Methylthiouracil]	0%	–
Cc1cc2c(cc1S(N)(=O)=O)S(=O)(=O)CCC2 [Meticrane]	0%	–
CCN(CC)CCNC(=O)c1cc(Cl)c(N)cc1OC [Metoclopramide HCl]	0%	–
Cc1ccccc1N1C(=O)c2cc(S(N)(=O)=O)c(Cl)cc2NC1C (stereo not drawn) [Metolazone]	0%	–
COCCc1ccc(OCC(O)CNC(C)C)cc1 (stereo not drawn) [Metoprolol Tartrate]	–	45.82%
COCCc1ccc(OCC(O)CNC(C)C)cc1 (stereo not drawn) [Metoprolol succinate]	–	1.216%
COCCc1ccc(OCC(O)CNC(C)C)cc1 (stereo not drawn) [Metoprolol]	–	3.241%
Cc1ncc([N+](=O)[O-])n1CCO [Metronidazole]	16.9%	–
CC(C)(C(=O)c1cccnc1)c1cccnc1 [Metyrapone]	5.33%	–
CC[C@H](C)C(=O)O[C@H]1CCC=C2C=C[C@H](C)[C@H](CC[C@@H]3C[C@@H](O)CC(=O)O3)[C@H]21 [Mevastatin]	12.1%	–
Cc1cccc(C)c1OCC(C)N (stereo not drawn) [Mexiletine HCl]	9.05%	–
CC1(C)S[C@@H]2[C@H](NC(=O)[C@H](NC(=O)N3CCN(S(C)(=O)=O)C3=O)c3ccccc3)C(=O)N2[C@H]1C(=O)O [Mezlocillin Sodium]	6.75%	–
CCCCCOc1ccc(-c2cc(-c3ccc(C(=O)N[C@H]4C[C@@H](O)[C@@H](O)NC(=O)[C@@H]5[C@@H](O)[C@@H](C)CN5C(=O)[C@H]([C@H](O)CC(N)=O)NC(=O)[C@H]([C@H](O)[C@@H](O)c5ccc(O)c(OS(=O)(=O)O)c5)NC(=O)[C@@H]5C[C@@H](O)CN5C(=O)[C@H]([C@@H](C)O)NC4=O)cc3)no2)cc1 [Micafungin Sodium] (X1-[Orn(4R-OH,5R-OH)]T[Hyp][hTyr(3S-OH,4S-OH,3'-OSO3H)][Gln(3R-OH)][Pro(3S-OH,4S-Me)]; lactam 1-C)	0%	–
CCC(=O)O[C@@H]1CC(=O)O[C@H](C)C/C=C/C=C/[C@H](O)[C@H](C)C[C@H](CC=O)[C@H](O[C@@H]2O[C@H](C)[C@@H](O[C@H]3C[C@@](C)(O)[C@@H](OC(=O)CC)[C@H](C)O3)[C@H](N(C)C)[C@H]2O)[C@H]1OC [Midecamycin]	5.18%	–
CC#C[C@]1(O)CC[C@H]2[C@@H]3CCC4=CC(=O)CCC4=C3[C@@H](c3ccc(N(C)C)cc3)C[C@@]21C [Mifepristone]	8.31%	–

Structure (SMILES)	inhibition at 100 µM	%inhibition
OCCN1C[C@H](O)[C@@H](O)[C@H](O)[C@H]1CO [Miglitol]	11%	–
Cc1[nH]c(=O)c(C#N)cc1-c1ccncc1 [Milrinone]	0%	–
CCCCCCCCCCCCCCCCOP(=O)([O-])OCC[N+](C)(C)C [Miltefosine]	0%	–
Cc1cc(-c2ccccc2)nnc1NCCN1CCOCC1 [Minaprine dihydrochloride]	2.13%	–
CN(C)c1ccc(O)c2c1C[C@H]1C[C@H]3[C@H](N(C)C)C(O)=C(C(N)=O)C(=O)[C@@]3(O)C(O)=C1C2=O [Minocycline HCl]	0%	–
Nc1cc(N2CCCCC2)nc(N)[n+]1OS(=O)(=O)[O-] [Minoxidil sulphate]	19%	–
Nc1nc(CC(=O)Nc2ccc(CCNC[C@H](O)c3ccccc3)cc2)cs1 [Mirabegron]	0%	–
CN1CCN2c3ncccc3Cc3ccccc3C2C1 (stereo not drawn) [Mirtazapine]	7.99%	–
CO[C@@]12[C@H](COC(N)=O)C3=C(C(=O)C(C)=C(N)C3=O)N1C[C@@H]1N[C@@H]12 [Mitomycin C]	10.1%	–
Clc1ccc(C(c2ccccc2Cl)C(Cl)Cl)cc1 (stereo not drawn) [Mitotane]	46.2%	–
O=C1c2c(O)ccc(O)c2C(=O)c2c(NCCNCCO)ccc(NCCNCCO)c21 [Mitoxantrone 2HCl]	74.8%	–
NC(=O)c1ncn([C@@H]2O[C@H](CO)[C@@H](O)[C@H]2O)c1O [Mizoribine]	0%	–
Nc1ccccc1NC(=O)c1ccc(CNc2nccc(-c3cccnc3)n2)cc1 [Mocetinostat (MGCD0103)]	7.18%	–
O=C(NCCN1CCOCC1)c1ccc(Cl)cc1 [Moclobemide (Ro 111163)]	0%	–
CCOC(=O)[C@H](CCc1ccccc1)N[C@@H](C)C(=O)N1Cc2cc(OC)c(OC)cc2C[C@H]1C(=O)O [Moexipril HCl]	0%	–
CCOC(=O)CC(=O)N1CCSC1COc1ccccc1OC (stereo not drawn) [Moguisteine]	13%	–
O=c1c(-n2ccnn2)c[nH]n1-c1cc(N2CCOCC2)ncn1 [Molidustat (BAY 85-3934)]	19.3%	–
CCc1c(C)[nH]c2c1C(=O)C(CN1CCOCC1)CC2 (stereo not drawn) [Molindone hydrochloride]	0%	–
